From patent publication US20070031511A1, “Method of treatment” (priority 2003, published 2007)
Where no end group is shown, it is not given here. [ ]: non-standard residue; d: D form. pGlu = O=C1CC[C@@H](C(=O)O)N1

How the values were obtained:
[1] = system: IMGE-5 cells; experiment: IMGE-5 cell proliferation, [3H]-thymidine incorporation; format: cell-based, mice; settings: for Inhibition of Ggly-stimulated IMGE-5 cell proliferation by iron chelator: [3H]-thymidine incorporation (FIG. 10); for S (%), maximum % stimulation: IMGE cells, thymidine uptake, best fit at saturating concentration; for Effect of DFO on proliferation induced by the peptide: peptide 100 nM, plus or minus 1 μM DFO, [3H]-thymidine incorporation
Description: In some cases cell proliferation was also measured by [^3H]-thymidine incorporation as described previously (Oiry et al., 2000). Briefly, IMGE-5 cells (10^5/well) were seeded in 24-well plates in medium containing 10% FBS and 1 unit/ml γ-interferon. On the next day cells were serum starved and shifted to 39° C. for 24 hr. Cells were then incubated with or without various compounds at 39° C. for 17 h in medium supplemented with 0.2% bovine serum albumin only. Cells were incubated with 0.5 μCi of [^3H] thymidine in the same medium at 39° C. for 4 h, washed twice with PBS (2.7 mM KCl, 142 mM NaCl, 1.5 mM KH2PO4, 10 mM Na2HPO4, pH 6.95) containing 0.2% bovine serum albumin and incubated at 4° C. for 30 min with 5% trichloroacetic acid. Finally cells were washed with 95% ethanol to remove unincorporated [^3H] thymidine, and lysed with 1 M NaOH. Lysates were transferred to counting vials and neutralized with 1M HCl. The radioactivity of each lysate was counted in a β-counter after the addition of 10 ml of Pico-fluor 40 solution (Packard, Meriden, Conn.).
In some experiments IMGE-5 cells were seeded in a 96-well plate at a density of 3-5×10^3 cells/well in.DMEM containing 10% FBS, and cultured at 33° C.. On the following day, the cells were serum-starved at 33° C. for 24 h. […] The cells were cultured at 39° C. for 24 h, and then harvested using a NUNC cell harvester. The amount of ^3H-thymidine incorporated through DNA synthesis was detected with a β-counter (Packard, Meriden, Conn.). […]

[2] = system: IMGE-5 cells; experiment: Wound healing / cell migration assay; format: cell-based, mice; settings: wound healing assay; fragments and mutants shown at 1 nM (FIGS. 7B, 8B)
Description: (§1) The IMGE-5 cell line was established from the gastric mucosa of mice transgenic for a temperature-sensitive mutant of the SV40 large T antigen (Hollande et al, 2001). IMGE-5 cells were generally grown at 33° C. in DMEM containing 1 unit/ml γ-interferon, 10% FBS, 100 U/ml penicillin, and 100 μg/ml streptomycin (permissive conditions). For all experiments, cells were transferred to 39° C. in the same medium without […] (non-permissive conditions), where they display differentiated characteristics such as expression of functional adherens and tight junctions. All experiments have been performed on cells between passages 20 and 35.
In order to assess the effects of different stimuli on cell migration, wound healing experiments were performed as detailed elsewhere (Hollande et al, 1997). In brief, IMGE-5 cells were grown in 12-well plates in DMEM at 33° C. until they reached 80% confluence, then shifted to 39° C. and starved of serum for 24 h. The confluent monolayer was wounded using a 20 μl-pipette tip, and cells were then washed 3 times with phosphate-buffered saline (PBS: 2.7 mM KCl, 1.5 MM KH2PO4, 142 mM NaCl, and 10 mM Na2HPO4, pH 6.95) and treated with or without different compounds in DMEM with antibiotics. Morphology and migration of cells were observed and photographed immediately, and after treatment for 17 and 24 h. Wound width was measured at six different positions on the 24 h photographs, and averages calculated.

[3] = system: IMGE-5 cells; experiment: IMGE-5 cell proliferation, MTT assay; format: cell-based, mice; settings: MTT assay; peptides shown at 1 nM (FIGS. 7A, 8A)
Description: as §1
A colorimetric assay was used to measure cell proliferation. Briefly, IMGE-5 cells were seeded in a 96-well plate at a density of 10^4 cells/well in DMEM containing 10% FBS and antibiotics. The following day, cells were synchronized in Go by incubation for 24 h in the same medium lacking FBS. The medium was replaced the next day with fresh medium containing 1% FBS and antibiotics and the peptides under investigation, and incubation was continued for 72 h. 15 μl of 5 mg/ml 3-(4,5-dimethylthiazol-2-yl)-2-5-diphenyltetrazolium bromide (MTT, Sigma, St Louis Mo.) was added per well, and the plate was incubated at 37° C. for 4 h before the medium was discarded. 200 μl 40 mM HCl in isopropanol was added to lyse the cells, and the absorbance at 570 nm was read on a BioRad Model 550 Microplate reader (BioRad, Hercules, Calif.).

[4] = Quenching of peptide tryptophan fluorescence by ferric ions (stoichiometry, apparent Kd); format: binding; settings: 10 mM sodium acetate pH 4.0, 100 mM NaCl, 0.005% Tween 20; mean ± S.E.; read-out: Kd (μM), apparent dissociation constant for ferric ions
Description: The tryptophan fluorescence of peptide solutions was measured in 3 mL quartz cuvettes thermostated at […], with a Spex Fluorolog-2 spectrofluorimeter (Spex Industries, Edison, N.J.), with the excitation and emission wavelengths set at 290 and 345 nm, respectively. The quenching of tryptophan fluorescence induced by the binding of metal ions was used to calculate the fraction of binding sites occupied, fa: fa=(yf−y)/(yf−yb) where y is the fluorescence signal at a given concentration of metal ions and yb and yf are the signals when the binding sites are fully occupied and unoccupied, respectively (Winzor et al, 1995). The stoichiometry, p, and apparent dissociation constant, Kd, were then obtained, using the program Sigmastat (Jandel Scientific, San Rafael, Calif.), from the intercept and slope of a linear regression of the data transformed as described by Winzor and Sawyer (1995) in terms of the equation Cs/fa=pCa+Kd/(1−fa) where Cs is the total concentration of metal ions, and Ca is the total concentration of glycine-extended gastrin17. For the bismuth binding studies, the data was fitted by non-linear regression with the program Sigmaplot (Jandel Scientific, San Rafael, Calif.) to the equations for models with one binding site or two binding sites with identical affinities: fa=x/(Kd1+x) or to the model with two binding sites with different affinities: fa=(Kd1·x+Kd2·x+2x^2)/2(Kd1·Kd2+Kd1·x+Kd2·x+x^2) where x is the concentration of free metal ions, Kd1 is the first site dissociation constant and Kd2 is the second site dissociation constant. For the one-site model the value of x at any given total concentration of metal ions was obtained by exact solution of the appropriate quadratic (Malby et al, 2001). For the two-site models the value of x was obtained by an iterative Newton-Raphson procedure (Linse et al, 1991). Absorption Spectroscopy
The tryptophan fluorescence of progastrin6-80, glycine-extended gastrin17 and related peptides was measured in the presence of increasing concentrations of ferric ions in 10 mM sodium acetate, pH 4.0, 100 mM NaCl, 0.005% Tween 20. […] Values from the indicated number of independent experiments were combined to obtain the mean values (±S.E.) presented above. No binding of ferric ions to Ggly1-4 or Ggly12-18 was observed.
The tryptophan fluorescence of amidated gastrin17 and related peptides was measured in the presence of increasing concentrations of ferric ions at pH 4.0 (8). Values of the stoichiometry and the apparent dissociation constant (Kd) were obtained from linear transformations of the data presented in FIG. 20A by least squares fitting. Values from the indicated number of independent experiments were combined to obtain the mean values (±S.E.) presented above.

Compound	S (%), maximum % stimulation [1] [%]	Effect of DFO on proliferation induced by the peptide [1]	Stimulation of IMGE-5 cell migration [2]	Stimulation of IMGE-5 cell proliferation [3]	other results
Oc1c(I)cc(Cl)c2cccnc12 [clioquinol]	–	–	–	–	Inhibition of Ggly-stimulated IMGE-5 cell proliferation by iron chelator [1]: inhibited Ggly-stimulated IMGE-5 cell proliferation in a dose-dependent manner
COc1cccc2c1C(=O)c1c(O)c3c(c(O)c1C2=O)C[C@@](O)(C(=O)CO)C[C@@H]3O[C@H]1C[C@H](N)[C@H](O)[C@H](C)O1 [doxorubicin]	–	–	–	–	Inhibition of Ggly-stimulated IMGE-5 cell proliferation by iron chelator [1]: inhibited Ggly-stimulated IMGE-5 cell proliferation in a dose-dependent manner
EEEEE [Peptide E5]	22.5	no significant reduction	–	–	–
EEEEEA [Peptide E5A]	29.1	no significant reduction	–	–	–
EEEEEAY [Peptide E5AY]	36.1	significantly blocked by DFO	–	–	–
Ggly1-4: fragment of Ggly, residues 1-4, SEQ ID NO:6 ([pGlu]GPW; listed as Homo sapiens)	–	–	Nor did they stimulate migration	neither of these fragments stimulated proliferation	–
Ggly12-18: C-terminal heptapeptide of Ggly, SEQ ID NO:8 (YGWMDFG; listed as Homo sapiens)	–	–	Nor did they stimulate migration	neither of these fragments stimulated proliferation	–
GglyE6A: Ggly mutant, Glu6 replaced by Ala, SEQ ID NO:10 ([pGlu]GPWLAEEEEAYGWMDFG; ends and bridges not checked)	–	–	to the same extent as Ggly	to the same extent as Ggly	Kd [4]: 0.23 ± 0.02 µM
LEEEEE [LE5]	29.9	no significant reduction	–	–	–
LEEEEEA [LE5A]	34.7	lower in the presence of DFO, although the reduction did not reach significance	–	–	–
